In patent publication US20190064129A1, “Systems And Methods To Determine Body Drug Concentration From An Oral Fluid” (Sterling Healthcare Opco, LLC, priority 2013, published 2019):

Key:
[1] = referenced in literature, cited from earlier work; for Kel: elimination constant
[2] = LC-MS/MS quantitation of drug in donor oral fluid (saliva); type: in vivo, human
Description: With reference now to FIG. 1, an exemplary methodology 100 for collecting oral fluid will be described. First, the donor (sometimes referred to as subject, patient, person, or the like) is positioned to allow retrieval of the oral fluid sample, step 102. Next, an oral fluid collection device is placed in the donor's mouth, step 104. The collection device in one exemplary embodiment may be an absorbent swab placed under the tongue. One particularly useful collection device that has been developed is shown and described in FIG. 6. In this exemplary embodiment, the oral fluid collection device collects about 1 mL of neat oral fluid from the donor. Generally, the term about or approximately in the present application means within an acceptable tolerance, such as, for example, ±10% or the like. Volumetric collection is required for quantitative analysis when analyzed from a buffer solution. Oral fluid may be absorbed by the collection device by allowing saliva to move up the stem of a collection device via capillary action, step 106. When a sufficient amount of oral fluid is collected, the collection device provides indicia that the required collection amount has been collected, step 108. The indicia indicating the required volume is collected may be by a color change on a collection adequacy indicator or the like. Alternatively, an alpha/numeric display may be provided or an audio alert, such as a beep. Determining salivary pH is completed next or substantially at the same time as the required volume is collected, step 110. The pH of the oral fluid may be determined by a pH sensitive pigment or by other means including, for example, a sensor or the like. The pH indicia may be combined or separate from the indicia for volume and may include the same or different indicators. For example, the volume of the sample may be provided by a color strip whereas the pH may be provided by an audio. […] The pH will then be recorded or otherwise maintained for later use, step 112. In this exemplary embodiment, the donor will provide a sample by placing the collector swab under his or her tongue until the indicator changes color. The swab is then placed in 3 mL of oral fluid extraction buffer that promotes stabilization of the drug, preventing bacterial growth, and facilitates efficient extraction of the drugs and/or metabolites from the adsorbent swab, as is further explained below, step 114. Specimens may be aliquoted for analysis, and any remaining sample may be transferred to long-term storage at, for example, a storage temperature of between about −20 to about 0° C. The collected oral fluid may be referred to as a sample or a specimen interchangeably herein.
Specimens may undergo a sample preparation step in advance of providing the sample to the drug concentration analysis engine, which involves extracting the analyte(s) of interest from biological matrices. This process serves to eliminate any biological material that could potentially affect analytical results. Samples are first treated to disrupt any drug matrix interactions (protein binding, conjugation) and then adjusted to a specific pH with a buffer. Analytes are then extracted from the remaining matrix using solid phase extraction module 206, which may be comprised of cartridges that are mixed-mode cationic exchange columns. This technique uses the specific binding of ionized drug molecules to the extraction cartridge packing material resulting in strong analyte retention within the column. A series of aqueous and organic wash steps may be used to assist in removing unwanted compounds and matrix components from the sample. Target analytes are then eluted from the solid phase extraction module 206, collected, and analyzed by identification module 208 that may be, for example, a liquid chromatography tandem mass spectrometry (LC/MS-MS) device, although other analysis devices are possible. […]

[3] = Oral fluid plasma equivalent calculation; type: in vivo, human
Description: (§1) Each donor provides simultaneous serum and oral fluid samples. The measured serum drug concentration is the LC-MS/MS response ratio of drug to internal standard determined from the individual's provided serum sample. The measured oral fluid drug concentration ratio is the LC-MS/MS response ratio of drug to internal standard determined from the individual's provided oral fluid sample. The oral fluid plasma equivalent is derived from the individual's measured oral fluid drug concentration, salivary pH, as well as various drug parameters referenced in literature.
[formula] • S=Saliva drug concentration (ng/mL) • P=Plasma drug concentration (ng/mL) • pHs=pH of saliva (to be determined at the time of collection) • pHp=pH of plasma (assumed to be 7.4) • pKa=Dissociation constant of a drug (referenced in literature) • fp=Free fraction of drug in plasma (referenced in literature) • fs=Free fraction of drug in saliva (negligible; assumed to be 1)
Once the S/P ratio for a drug is calculated using Eq. 5 or Eq. 6, oral fluid plasma equivalent is determined by […] the calculated S/P by the measured oral fluid drug concentration determined by LC/MS-MS quantitation, ultimately eliminating the necessity of directly analyzing blood samples to determine donor compliance.

[4] = LC-MS/MS quantitation of drug in donor serum/plasma; type: in vivo, human
Description: Specimens may undergo a sample preparation step in advance of providing the sample to the drug concentration analysis engine, which involves extracting the analyte(s) of interest from biological matrices. This process serves to eliminate any biological material that could potentially affect analytical results. Samples are first treated to disrupt any drug matrix interactions (protein binding, conjugation) and then adjusted to a specific pH with a buffer. Analytes are then extracted from the remaining matrix using solid phase extraction module 206, which may be comprised of cartridges that are mixed-mode cationic exchange columns. This technique uses the specific binding of ionized drug molecules to the extraction cartridge packing material resulting in strong analyte retention within the column. A series of aqueous and organic wash steps may be used to assist in removing unwanted compounds and matrix components from the sample. Target analytes are then eluted from the solid phase extraction module 206, collected, and analyzed by identification module 208 that may be, for example, a liquid chromatography tandem mass spectrometry (LC/MS-MS) device, although other analysis devices are possible.
In this exemplary embodiment, the specimens are analyzed by the identification module 208 that is a LC/MS-MS device, which allows for accurate and precise analyte identification and quantitation. This analytical technique uses a chromatographic system to separate all of the sample components into discrete peaks and sequentially identifies each compound through mass spectral identification. The chromatographic system is composed of a stationary phase of hydrophobic character (for example, octadecylsilane) and a mobile phase of varying polarity (for example, methanol, water). Specimens are injected into the chromatograph and pumped through the system by flow of the mobile phase. Separation is brought about by differential interactions with the stationary phase based on physical and chemical properties of the individual analytes. The end result is a separation of all of the sample components into discrete bands. As each component elutes from the liquid chromatograph it enters the mass spectrometer. The mass spectrometer is able to first determine an analytes specific molecular weight, called a precursor ion, and subsequently fragment the precursor ion into smaller fragments called product ions. The precursor ion and generated product ions are a specific marker of every analyte of interest. No two compounds will generate completely identical mass spectra. This allows for the identification module 208 to conclusively identify specimen components. Additionally, when specimens are analyzed alongside a series of standards of known concentration, a calibration curve can be generated and quantitative values of identified drugs can be determined.
as §1

[5] = Drug pharmacokinetic parameters referenced in literature; type: in vivo; conditions: drug clearance/Vd
Method: Do=Original dosage taken Vd=Volume of distribution of drug (referenced in literature) times the kg body weight of donor C=Plasma drug concentration Ka=Absorption constant of drug (referenced in literature) Kel=Elimination constant of drug (referenced in literature) F=Bioavailability of drug (referenced in literature) t=Elapsed time between dosage and specimen collection
Each donor's drug clearance rate is determined by multiplying the drugs clearance rate (referenced in literature) by the donor's weight (provided).
Likewise, each donor's volume of distribution (DVd) is calculated by multiplying the drug volume of distribution (Vd) (referenced in literature) by the donor's weight (provided).
[formula] • Css max=Steady state maximum concentration (ng/mL) • F=Fractional bioavailability • k=Fractional rate constant (drug clearance/Vd) • t=Dose frequency (hr) • DVd=Donor volume of distribution (reference Eq. 2)
[formula] • Do=Original dose taken (mg) • DVd=Volume of distribution of donor (mL) (reference Eq. 2) • C=Plasma drug concentration (mg/mL) • Ka=Absorption constant of drug (referenced in literature) • Kel=Elimination constant of drug (referenced in literature) • F=Fractional bioavailability of drug (referenced in literature) • t=Elapsed time between dosage and specimen collection (fir)

plasma proteins = conditions: free fraction in plasma, referenced in literature; cited from earlier work
[6] = Donor 0182, salivary pH 5.5, dose 5 mg every 6 hr, weight 68.554 kg
[7] = Donor 0383, salivary pH 5.8, dose 10 mg every 4 hr, weight 68.10 kg
[8] = Donor 0602, salivary pH 5.5, dose 5 mg every 12 hr, weight 163.44 kg
[9] = Donor 0442, salivary pH 5.8, dose 100 mg every 8 hr, weight 89.890 kg
[10] = Donor 0604, salivary pH 5.5, dose 50 mg every 8 hr, weight 81.720 kg
[11] = Donor 0673, salivary pH 6.8, dose 50 mg every 6 hr, weight 105.782 kg

In the case of `COc1ccc2c3c1O[C@H]1C(=O)CC[C@@]4(O)[C@@H](C2)N(C)CC[C@]314` [Oxycodone], the Kel [1] is given as 0.174 h⁻¹, the Clearance [1] is given as 12.4 mL/min/kg and the “Fractional Bioavailability” value [1] is given as 0.735. The “Measured Saliva Oxycodone Concentration” value [2, 6] was 306.4 ng/mL, the “Measured Saliva Oxycodone Concentration” value [2, 7] was 230.2 ng/mL and the “Measured Saliva Oxycodone Concentration” value [2, 8] was 978.2 ng/mL. For the same compound, the concentration at 1.333 hr ([2]; human, oral fluid (saliva), po, 1 mg, Donor 0565, salivary pH 6.4, weight 118.040 kg, 1.333 hr after last dose, read-out: Measured Oral Fluid Concentration) was 217 ng/mL, the “Oxycodone Oral Fluid Plasma Equivalent” value [3, 6] was 7.5 ng/mL and the “Oxycodone Oral Fluid Plasma Equivalent” value [3, 7] was 11.3 ng/mL. The “Oral Fluid Plasma Equivalent (Calculated Plasma Concentration)” value ([3]; Donor 0565, salivary pH 6.4, 1.333 hr after last dose) was 42.0 ng/mL (reference Eq. 8), the “Oxycodone Oral Fluid Plasma Equivalent” value [3, 8] was 24.1 ng/mL and the concentration at 1.333 hr ([3]; human, plasma (equivalent calculated from oral fluid), po, 1 mg, Donor 0565, salivary pH 6.4, 1.333 hr after last dose) was 42 ng/mL. The “Measured Plasma Oxycodone Concentration” value [4, 6] was 7.9 ng/mL, the “Measured Plasma Oxycodone Concentration” value [4, 7] was 8.4 ng/mL and the “Measured Plasma Oxycodone Concentration” value [4, 8] was 16.7 ng/mL. For the same compound, the concentration at 1.383 hr ([4]; human, plasma, 1 mg, Donor 0565, weight 118.040 kg, 1.383 hr after last dose) was 33.7 ng/mL, the concentration at 6.05 hr ([4]; human, plasma, 7.5 mg, Donor 0476, weight 84.898 kg, 6.050 hr after last dose, read-out: Measured Plasma Concentration) was 3.2 ng/mL and the “Fractional Rate Constant; “k”” value [5] was 0.372 h⁻¹. For the same compound, the “Unbound Fraction (fp)” value (plasma proteins) was 0.55.

In the case of `COc1ccc2c3c1O[C@H]1C(=O)CC[C@H]4[C@@H](C2)N(C)CC[C@]314` [Hydrocodone], the Ka ([1]; absorption constant) is given as 2.8 h⁻¹, the Kel [1] is given as 0.141 h⁻¹ and the Clearance [1] is given as 8.82 mL/min/kg. For the same compound, the “Fractional Bioavailability” value [1] was 0.7, the “Hydrocodone Oral Fluid Plasma Equivalent” value ([3]; Donor 0409, salivary pH 6, dose 5 mg every 6 hr, weight 67.646 kg) was 20.5 ng/mL and the “Oral Fluid Plasma Equivalent” value ([3]; Donor 0476, salivary pH 7.2, 5.833 hr after last dose) was 4.5 ng/mL (reference Eq. 8). For the same compound, the “Hydrocodone Oral Fluid Plasma Equivalent” value ([3]; Donor 0704, salivary pH 6.6, dose 10 mg every 12 hr, weight 147.55 kg) was 60.5 ng/mL, the “Hydrocodone Oral Fluid Plasma Equivalent” value ([3]; Donor 0897, salivary pH 7, dose 10 mg every 4 hr, weight 83.99 kg) was 10.1 ng/mL and the “Fractional Rate Constant; “k”” value [5] was 0.132 h⁻¹.

In the case of `COc1cccc(C2(O)CCCCC2CN(C)C)c1` (stereo not drawn) [Tramadol], the Clearance [1] is given as 8 mL/min/kg, the “Fractional Bioavailability” value [1] is given as 0.725 and the “Volume of Distribution” value [1] is given as 2.7 L/kg. The “Measured Saliva Tramadol Concentration” value [2, 9] was 1302.5 ng/mL, the “Measured Saliva Tramadol Concentration” value [2, 10] was 29926.5 ng/mL and the “Measured Saliva Tramadol Concentration” value [2, 11] was 375.6 ng/mL. For the same compound, the “Tramadol Oral Fluid Plasma Equivalent” value [3, 9] was 41.2 ng/mL, the “Tramadol Oral Fluid Plasma Equivalent” value [3, 10] was 475.5 ng/mL and the “Tramadol Oral Fluid Plasma Equivalent” value [3, 11] was 118.7 ng/mL. The “Measured Plasma Tramadol Concentration” value [4, 9] was 70.4 ng/mL, the “Measured Plasma Tramadol Concentration” value [4, 10] was 376.6 ng/mL and the “Measured Plasma Tramadol Concentration” value [4, 11] was 104.1 ng/mL. The “Fractional Rate Constant; “k”” value [5] was 0.178 h⁻¹ and the “Unbound Fraction (fp)” value (plasma proteins) was 0.80.
